Assay results as given in patent US20150072929A1, “Pharmaceutical composition comprising a mixture of carboxylated oligopeptides” (priority 2013, published 2015).

What was measured:
HeLa-2 cells = test: Anti-cancer activity in cell culture, MAD and cytopathic activity; format: cell-based; conditions: minimum amount causing degeneration of 90-95% of the cells, five days
Protocol: The anti-cancer activity of MPs. The determination of the anti-cancer activity of Anticanum in a cell culture was made in a culture of HeLa-2 cells. For this purpose, 20-120 mcg of MPs per ml of medium were added to the 199 medium. (See Table 2.) A culture without MPs in it was used as a control. Cultures were observed daily over the course of five days.

benzidine skin sarcoma = test: Benzidine skin sarcoma in Barbados mice
[1] = system: Ehrlich's ascites adenocarcinoma; test: Ehrlich's ascites adenocarcinoma in Barbados mice; conditions: n = 10

CC(=O)O[C@@]12CO[C@@H]1C[C@H](O)[C@@]1(C)C(=O)[C@H](O)C3=C(C)[C@@H](OC(=O)[C@H](O)[C@@H](NC(=O)OC(C)(C)C)c4ccccc4)C[C@@](O)([C@@H](OC(=O)c4ccccc4)[C@H]21)C3(C)C [Taxotere]
MAD (HeLa-2 cells): 10 µg/mL
Weight of Animal, After Treatment (benzidine skin sarcoma; 100 mcg/kg parenterally twice a day for two weeks, n = 7): 23 ± 1.1 g
Weight of Animal, Before Treatment (benzidine skin sarcoma; baseline, n = 7): 27 ± 2 g
Mice died (benzidine skin sarcoma; during treatment, n = 7): 2
Animal Survival (benzidine skin sarcoma; n = 10): 28 ± 1.1 days
Time of Death of Animals after the First Injection, Average Value, Experimental Animals ([1]; IP): 14 ± 1 days
Time of Death of Animals after the First Injection, Average Value, Experimental Animals ([1]; IV): 15 ± 1 days
